In data set [1] the test system is MV4-11. The data set can be described thus: Antiproliferative activity against FLT3-ITD-positive human MV4-11 cells assessed as reduction in cell growth after 72 hrs by MTT assay. In kind it is functional, cell-based. As to conditions: MV4-11, 72 h.
Data set [2] concerns the target Receptor-type tyrosine-protein kinase FLT3 (Homo sapiens) (UniProt P36888). Nature of the data set: Inhibition of human FLT3 (564 to end residues) assessed as residual activity at 100 nM using EAIYAAPFAKKK as substrate after 40 mins in presence of [gamma33P]-ATP by scintillation counting based radiometric assay relative to control.
In data set [3] the target is Tyrosine-protein kinase JAK1 (Homo sapiens, UniProt P23458). Nature of the data set: Inhibition of human JAK1 (866 to end residues) GEEPLYWSFPAKK as substrate after 40 mins in presence of [gamma33P]-ATP by scintillation counting based radiometric assay.
Chain of Tyrosine-protein kinase JAK1 (P23458 whole entry): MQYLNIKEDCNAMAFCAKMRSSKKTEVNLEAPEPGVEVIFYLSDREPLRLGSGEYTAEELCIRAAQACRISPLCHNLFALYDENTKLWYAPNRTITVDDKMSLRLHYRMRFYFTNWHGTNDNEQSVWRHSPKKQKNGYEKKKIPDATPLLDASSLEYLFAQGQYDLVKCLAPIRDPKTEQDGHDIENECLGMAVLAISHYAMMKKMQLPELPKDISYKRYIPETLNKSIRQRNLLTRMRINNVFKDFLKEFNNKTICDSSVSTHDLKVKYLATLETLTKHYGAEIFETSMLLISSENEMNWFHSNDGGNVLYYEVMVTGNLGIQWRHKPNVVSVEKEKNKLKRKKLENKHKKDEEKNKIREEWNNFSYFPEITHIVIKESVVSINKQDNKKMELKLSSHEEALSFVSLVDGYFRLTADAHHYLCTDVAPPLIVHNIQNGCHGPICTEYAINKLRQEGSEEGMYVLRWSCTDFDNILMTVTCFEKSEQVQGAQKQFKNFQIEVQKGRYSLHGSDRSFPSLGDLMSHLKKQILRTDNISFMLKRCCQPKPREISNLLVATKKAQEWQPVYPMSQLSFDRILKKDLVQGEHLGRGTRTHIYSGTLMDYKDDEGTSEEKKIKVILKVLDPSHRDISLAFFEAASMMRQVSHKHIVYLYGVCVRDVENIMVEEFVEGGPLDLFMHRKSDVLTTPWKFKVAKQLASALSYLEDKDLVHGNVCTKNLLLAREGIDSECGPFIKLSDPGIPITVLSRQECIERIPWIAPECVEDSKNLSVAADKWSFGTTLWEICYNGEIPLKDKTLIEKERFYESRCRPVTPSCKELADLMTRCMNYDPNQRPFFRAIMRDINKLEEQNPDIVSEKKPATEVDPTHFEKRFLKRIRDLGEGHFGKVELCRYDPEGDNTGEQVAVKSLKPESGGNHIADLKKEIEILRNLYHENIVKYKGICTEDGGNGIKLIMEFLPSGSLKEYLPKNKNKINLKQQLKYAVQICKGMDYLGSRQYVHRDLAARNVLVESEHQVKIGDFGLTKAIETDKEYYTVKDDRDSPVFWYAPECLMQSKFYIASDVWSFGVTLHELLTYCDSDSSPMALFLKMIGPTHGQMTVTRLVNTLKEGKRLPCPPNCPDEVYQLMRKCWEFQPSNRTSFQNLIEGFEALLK
Data set [4] can be described thus: Cmax in Sprague-Dawley rat at 5 mg/kg, po measured up to 24 hrs by LC/MS/MS analysis. On the set-up: dose 5 mg/kg, route oral. The data set is classed as ADME, organism-based. As to conditions: in vivo, 24 h.
Data set [5] is described as follows: Oral bioavailability in Sprague-Dawley rat at 5 mg/kg measured up to 24 hrs by LC/MS/MS analysis. In kind it is ADME, organism-based. The note with it: in vivo.
The subject of another data set is IEC-6. The data set can be described thus: Cytotoxicity against rat IEC-6 cells assessed as cell viability after 72 hrs by MTT assay. In kind it is cell-based. As to conditions: iec-6, 72 h.
Data set [6] is described as follows: Cytotoxicity against rat H9c2(2-1) cells assessed as cell viability after 72 hrs by MTT assay. The data set is classed as cell-based.
Another data set relates to NCI-H460. The data set can be described thus: Antiproliferative activity against human NCI-H460 cells assessed as reduction in cell growth after 72 hrs by MTT assay. The data set is classed as functional, cell-based.
Another data set has as its target JAK3/JAK1 (Homo sapiens, UniProt P23458+P52333). The data set can be described thus: Inhibition of JAK1/JAK3 in human THP-1 cells assessed as reduction in IL-4-induced STAT6 phosphorylation by flow cytometry. The data set is classed as cell-based. In general terms: A flow cytometer gives signals particle by particle.
In data set [7] the test system is MV4-11. The data set can be described thus: Induction of cell cycle arrest in human MV4-11 cells assessed as accumulation at G0/G1 phase at 0.1 uM after 24 hrs by propidium iodide staining based flow cytometry analysis (reference value: 54.49%). The data set is classed as functional.
Data set [8] has as its system MV4-11. The data set can be described thus: Induction of apoptosis in human MV4-11 cells assessed as late apoptotic cells at 0.2 uM after 24 hrs by Annexin V FITC/PI staining based flow cytometry analysis (reference value: 1.38%). In kind it is functional.
In data set [9] the test system is MV4-11. Nature of the data set: Induction of apoptosis in human MV4-11 cells assessed as late apoptotic cells at 0.8 uM after 24 hrs by Annexin V FITC/PI staining based flow cytometry analysis (reference value: 1.38%). In kind it is functional.
The subject of data set [10] is MV4-11. The data set can be described thus: Induction of apoptosis in human MV4-11 cells assessed as early apoptotic cells at 1.6 uM after 24 hrs by Annexin V FITC/PI staining based flow cytometry analysis (reference value: 2.14%). The data set is classed as functional.
Data set [11] concerns MV4-11. The data set can be described thus: Antitumor activity against FLT3-ITD positive human MV4-11 cells xenografted in NOD/SCID mouse assessed as tumor growth inhibition at 60 mg/kg, po qd for 14 days measured every 2 days for 14 days by caliper method relative to control. In kind it is functional. As to conditions: MV4-11, po, read-out: TGI. (In general: A xenograft is tissue or cells of one species grown in another, often human tumour cells in immunodeficient mice.)

For another data set, the system named is SET-2. Nature of the data set: Antitumor activity against human SET2 cells overexpressing JAK2 V617F mutant xenografted in NOD/SCID mouse assessed as tumor growth inhibition at 30 mg/kg, po qd for 18 days measured every 2 days for 18 days by caliper method relative to control. In kind it is functional. As to conditions: SET-2, po, read-out: TGI.

Calls of active or inactive are those of the source. No cut-off for these calls is given here.

In general, IC50 refers to the midpoint of a concentration-inhibition curve. Broadly, the Cmax is the highest concentration seen after dosing. As a reminder, the bioavailability is dose-corrected exposure relative to a reference, in per cent.

Chain of Receptor-type tyrosine-protein kinase FLT3 (Homo sapiens) (P36888 whole entry): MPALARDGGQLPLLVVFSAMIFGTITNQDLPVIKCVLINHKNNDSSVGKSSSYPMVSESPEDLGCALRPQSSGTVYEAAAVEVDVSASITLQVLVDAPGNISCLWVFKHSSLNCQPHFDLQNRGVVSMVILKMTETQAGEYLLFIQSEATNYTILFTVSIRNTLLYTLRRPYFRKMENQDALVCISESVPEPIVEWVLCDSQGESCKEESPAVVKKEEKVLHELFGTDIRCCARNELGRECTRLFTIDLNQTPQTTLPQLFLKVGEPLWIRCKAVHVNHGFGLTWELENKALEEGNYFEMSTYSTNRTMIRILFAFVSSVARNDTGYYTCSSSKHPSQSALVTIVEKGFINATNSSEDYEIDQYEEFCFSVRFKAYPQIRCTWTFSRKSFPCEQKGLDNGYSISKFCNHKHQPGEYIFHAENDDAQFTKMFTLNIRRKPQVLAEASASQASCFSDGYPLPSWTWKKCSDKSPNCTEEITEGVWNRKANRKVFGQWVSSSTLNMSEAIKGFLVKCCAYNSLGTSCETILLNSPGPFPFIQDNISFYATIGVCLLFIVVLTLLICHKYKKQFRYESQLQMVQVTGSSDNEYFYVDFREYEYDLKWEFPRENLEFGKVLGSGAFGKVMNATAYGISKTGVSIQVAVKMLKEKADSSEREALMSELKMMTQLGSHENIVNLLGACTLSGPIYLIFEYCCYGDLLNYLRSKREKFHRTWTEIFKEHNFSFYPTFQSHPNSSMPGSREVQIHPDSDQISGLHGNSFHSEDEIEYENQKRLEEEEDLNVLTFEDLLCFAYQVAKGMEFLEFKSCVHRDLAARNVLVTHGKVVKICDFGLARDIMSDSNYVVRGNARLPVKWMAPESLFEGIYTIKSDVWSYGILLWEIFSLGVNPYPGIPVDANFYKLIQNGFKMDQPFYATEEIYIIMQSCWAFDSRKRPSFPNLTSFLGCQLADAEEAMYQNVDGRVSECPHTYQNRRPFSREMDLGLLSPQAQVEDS
Chain of JAK3/JAK1 (P52333 whole entry): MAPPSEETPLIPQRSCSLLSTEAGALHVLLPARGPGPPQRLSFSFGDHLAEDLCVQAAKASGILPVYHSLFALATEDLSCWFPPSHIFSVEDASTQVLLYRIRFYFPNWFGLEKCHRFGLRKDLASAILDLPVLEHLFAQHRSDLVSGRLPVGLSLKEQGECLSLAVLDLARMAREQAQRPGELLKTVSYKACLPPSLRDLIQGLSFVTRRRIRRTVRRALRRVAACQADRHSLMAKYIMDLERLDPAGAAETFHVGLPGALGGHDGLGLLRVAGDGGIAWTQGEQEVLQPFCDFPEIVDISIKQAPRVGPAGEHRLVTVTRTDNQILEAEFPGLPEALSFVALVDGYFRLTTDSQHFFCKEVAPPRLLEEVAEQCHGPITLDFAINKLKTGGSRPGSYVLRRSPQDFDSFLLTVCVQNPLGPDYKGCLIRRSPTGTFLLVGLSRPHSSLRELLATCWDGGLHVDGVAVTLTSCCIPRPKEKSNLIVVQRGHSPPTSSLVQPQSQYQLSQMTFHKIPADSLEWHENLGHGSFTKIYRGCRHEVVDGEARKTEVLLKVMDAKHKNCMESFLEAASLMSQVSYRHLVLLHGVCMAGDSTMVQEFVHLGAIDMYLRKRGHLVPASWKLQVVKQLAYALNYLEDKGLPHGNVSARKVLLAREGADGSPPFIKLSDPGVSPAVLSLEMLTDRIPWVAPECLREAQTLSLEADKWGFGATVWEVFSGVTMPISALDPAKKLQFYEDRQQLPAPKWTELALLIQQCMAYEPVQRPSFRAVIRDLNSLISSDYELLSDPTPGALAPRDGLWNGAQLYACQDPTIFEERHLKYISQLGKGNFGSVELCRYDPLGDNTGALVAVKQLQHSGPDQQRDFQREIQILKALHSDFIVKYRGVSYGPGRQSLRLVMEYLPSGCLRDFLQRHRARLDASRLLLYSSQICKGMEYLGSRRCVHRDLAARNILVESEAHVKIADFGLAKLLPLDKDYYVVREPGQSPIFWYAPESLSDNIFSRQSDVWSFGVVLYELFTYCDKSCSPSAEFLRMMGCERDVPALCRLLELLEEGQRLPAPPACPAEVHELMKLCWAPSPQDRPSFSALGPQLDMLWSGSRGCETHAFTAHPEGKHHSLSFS
Chain of JAK3/JAK1 (P23458 whole entry): as the sequence (P23458 whole entry) above

For the compound `Cc1cnc(Nc2ccc(N3CCC(N(C)CCO)CC3)c(F)c2)nc1-c1cnn(C(C)C)c1`, the IC50 with MV4-11 [1] turned out to be 5.3 nM; in data set [3], 26 nM; on JAK3/JAK1, 578 nM. The Activity in [2] is 4%; in the data set on IEC-6, “Non-Toxic”; in data set [6] it was “Non-Toxic”; in the data set with MV4-11 [7], 84.71%; in the data set on MV4-11 [8], 9.88%; in the data set with MV4-11 [9], 29.3%. Moreover, the Activity in the data set on MV4-11 [10] is 33.6%. This compound also returned a Cmax in [4] of 102 ng/mL. For the same compound, the bioavailability in data set [5] came out at 58%. Further, the outcome with NCI-H460 was Active. Also, the inhibition in vivo at 60 mg/kg in the data set with MV4-11 [11] is 93%. Moreover, the inhibition in vivo at 30 mg/kg with SET-2 worked out at 66%.

The values above are taken from ChEMBL document CHEMBL4321837, “Discovery of Potent and Orally Effective Dual Janus Kinase 2/FLT3 Inhibitors for the Treatment of Acute Myelogenous Leukemia and Myeloproliferative Neoplasms” (J Med Chem, 2019).
